Measured values: patent US9096624B2 (OSI Pharmaceuticals, LLC, priority 2009, dated 2015)

How the values were obtained:
FAK [1] = molecular target: T1, FAK (Homo sapiens, UniProt Q05397); experiment: Cell-based capture ELISA for inhibition of FAK autophosphorylation [pY397] in MiaPaCa2 cells
Experimental: Cell-Based Assays for Inhibition of FAK Autophosphorylation: MiaPaCa2 and U87MG
ELISA kit from Invitrogen (KHO0441).
Reagents Provided in Biosource FAK [pY397]
The cells were then suspended in cell assay medium.

FAK [2] = molecular target: T1, FAK; experiment: biochemical
[3] = MIA-PaCa2 cells, + 50% mouse plasma (Table 3), read-out: Mean FAK Cell Mechanistic IC50 + 50% mP MIA-PaCa2
[4] = MIA-PaCa2 cells on fibronectin, 2 h, no plasma, read-out: Mean FAK Cell Mechanistic IC50 MIA-PaCa2
[5] = MIA-PaCa2 cells, + 50% human plasma, read-out: Mean FAK Cell Mechanistic IC50 + 50% hP MIA-PaCa2
[6] = MIA-PaCa2 cells, + 50% mouse plasma (Table 2), read-out: Mean FAK Cell Mechanistic IC50 + 50% mP MIA-PaCa2

T1 sequence (Q05397 whole entry): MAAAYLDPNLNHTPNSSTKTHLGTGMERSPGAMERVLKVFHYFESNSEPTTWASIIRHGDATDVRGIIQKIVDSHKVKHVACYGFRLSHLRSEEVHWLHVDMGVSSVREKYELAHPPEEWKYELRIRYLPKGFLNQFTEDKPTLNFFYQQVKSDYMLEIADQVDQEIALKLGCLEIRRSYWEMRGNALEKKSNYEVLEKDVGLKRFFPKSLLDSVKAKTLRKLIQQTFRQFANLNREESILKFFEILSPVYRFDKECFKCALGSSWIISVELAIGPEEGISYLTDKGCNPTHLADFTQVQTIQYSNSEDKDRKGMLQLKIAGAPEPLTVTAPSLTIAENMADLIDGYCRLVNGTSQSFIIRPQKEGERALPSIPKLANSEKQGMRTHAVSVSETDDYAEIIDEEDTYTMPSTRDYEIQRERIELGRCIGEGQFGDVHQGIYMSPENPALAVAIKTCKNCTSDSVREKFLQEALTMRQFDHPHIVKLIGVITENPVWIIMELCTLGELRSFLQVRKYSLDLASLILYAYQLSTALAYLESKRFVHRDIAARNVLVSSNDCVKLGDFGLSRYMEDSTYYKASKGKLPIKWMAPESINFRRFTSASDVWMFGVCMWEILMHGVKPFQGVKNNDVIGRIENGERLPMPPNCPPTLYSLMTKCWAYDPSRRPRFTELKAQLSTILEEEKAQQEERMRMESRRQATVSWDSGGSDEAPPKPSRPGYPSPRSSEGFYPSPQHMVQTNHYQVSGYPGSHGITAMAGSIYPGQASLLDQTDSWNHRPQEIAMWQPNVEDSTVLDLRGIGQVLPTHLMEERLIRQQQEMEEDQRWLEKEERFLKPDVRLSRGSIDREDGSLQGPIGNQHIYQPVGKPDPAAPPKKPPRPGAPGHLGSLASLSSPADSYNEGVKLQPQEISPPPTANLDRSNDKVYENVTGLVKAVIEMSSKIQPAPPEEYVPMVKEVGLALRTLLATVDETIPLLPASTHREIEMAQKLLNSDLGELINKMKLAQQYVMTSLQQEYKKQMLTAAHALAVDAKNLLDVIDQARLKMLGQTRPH

IC50 (FAK [1]; [4]) [nM] | IC50 (FAK [1]; [5]) [nM] | IC50 (FAK [1]; [6]) [nM] | Compound | IC50 (FAK [1]; [3]) [nM] | IC50 (FAK [2]) [nM]
 |  |  | CCOc1cc(CP(=O)(OCC)OCC)ccc1Nc1ncc(C(F)(F)F)c(Nc2ccc([C@H]3CC[C@H](C(=O)OCC)CC3)c3c2C(=O)N(C)C3)n1 [Example 245, Ethyl trans-4-(7-{[2-({4-[(diethoxyphosphoryl)methyl]-2-ethoxyphenyl}amino)-5-(trifluoromethyl)pyrimidin-4-yl]amino}-2-methyl-1-oxo-2,3-dihydro-1H-isoindol-4-yl)cyclohexanecarboxylate] | 1000 to 10000 | < 1000
< 1000 | < 1000 | < 1000 | CCP(=O)(CC)Cc1ccc(Nc2ncc(C(F)(F)F)c(Nc3ccccc3C(=O)NC)n2)cc1 [Example 24, 2-{[2-({4-[(Diethylphosphoryl)methyl]phenyl}amino)-5-(trifluoromethyl)pyrimidin-4-yl]amino}-N-methylbenzamide] |  | < 1000
 |  |  | CCOP(=O)(Cc1ccc(Nc2ncc(C(F)(F)F)c(Nc3ccc(-c4cnn(CCN(CC)CC)c4)c4c3C(=O)N(C)C4)n2)cc1)OCC [Example 175, Diethyl [4-({4-[(7-{1-[2-(diethylamino)ethyl]-1H-pyrazol-4-yl}-2-methyl-3-oxo-2,3-dihydro-1H-isoindol-4-yl)amino]-5-(trifluoromethyl)pyrimidin-2-yl}amino)benzyl]phosphonate] | < 1000 | < 1000
 |  |  | CCOP(=O)(Cc1ccc(Nc2ncc(Cl)c(Nc3ccc([C@H]4CC[C@H](O)CC4)c4c3C(=O)N(C)C4)n2)c(OC)c1)OCC [Example 250, Diethyl {4-[(5-chloro-4-{[7-(trans-4-hydroxycyclohexyl)-2-methyl-3-oxo-2,3-dihydro-1H-isoindol-4-yl]amino}pyrimidin-2-yl)amino]-3-methoxybenzyl}phosphonate] | < 1000 | < 1000
 |  |  | CNC(=O)c1ccccc1Nc1nc(Nc2ccc(CP(=O)(OCCO)OCCO)cc2OC)ncc1C(F)(F)F [Example 113, Bis(2-hydroxyethyl)(3-methoxy-4-{[4-{[2-(methylcarbamoyl)phenyl]amino}-5-(trifluoromethyl)pyrimidin-2-yl]amino}benzyl)phosphonate] | < 1000 | < 1000
 |  |  | CCOP(=O)(Cc1ccc(Nc2ncc(C(F)(F)F)c(Nc3ccc(C(=O)O)c4c3C(=O)N(C)C4)n2)cc1)OCC [Example 128, 7-{[2-({4-[(Diethoxyphosphoryl)methyl]phenyl}amino)-5-(trifluoromethyl)pyrimidin-4-yl]amino}-2-methyl-1-oxo-2,3-dihydro-1H-isoindole-4-carboxylic acid] | 1000 to 10000 | < 1000
 |  | 1000 to 10000 | CC(C)OP(=O)(OC(C)C)c1cccc(Nc2ncc(C(F)(F)F)c(NCc3cccnc3N(C)S(C)(=O)=O)n2)c1 [Example 58, dipropan-2-yl [3-({4-[({2-[methyl(methylsulfonyl)amino]pyridin-3-yl}methyl)amino]-5-(trifluoromethyl)pyrimidin-2-yl}amino)phenyl]phosphonate] |  | < 1000
< 1000 | < 1000 | < 1000 | CN(c1ncccc1CNc1nc(Nc2ccc(CP3(=O)OCC(C)(C)CO3)cc2)ncc1C(F)(F)F)S(C)(=O)=O [Example 32, N-[3-({[2-({4-[(5,5-dimethyl-2-oxido-1,3,2-dioxaphosphinan-2-yl)methyl]phenyl}amino)-5-(trifluoromethyl)pyrimidin-4-yl]amino}methyl)pyridin-2-yl]-N-methylmethanesulfonamide] |  | < 1000
 |  |  | CCOP(C)(=O)Cc1ccc(Nc2ncc(C(F)(F)F)c(Nc3ccc([C@H]4CC[C@H](O)CC4)c4c3C(=O)N(C)C4)n2)cc1 (stereo partly drawn) [Example 174, Ethyl (4-{[4-{[7-(trans-4-hydroxycyclohexyl)-2-methyl-3-oxo-2,3-dihydro-1H-isoindol-4-yl]amino}-5-(trifluoromethyl)pyrimidin-2-yl]amino}benzyl) methylphosphinate] | < 1000 | < 1000
 |  |  | CCOP(=O)(Cc1ccc(Nc2ncc(C(F)(F)F)c(Nc3ccc(C4CCC(N5CCCC5)CC4)c4c3C(=O)N(C)C4)n2)c(OC)c1)OCC (centres unmarked) [Example 242] | < 1000 | < 1000
 |  |  | CCOc1ccc(Nc2nc(Nc3ccc(CP(=O)(OCC)OCC)cc3)ncc2C(F)(F)F)c2c1CN(C)C2=O [Example 206, Diethyl [4-({4-[(7-ethoxy-2-methyl-3-oxo-2,3-dihydro-1H-isoindol-4-yl)amino]-5-(trifluoromethyl)pyrimidin-2-yl}amino)benzyl]phosphonate] | < 1000 | < 1000
 |  |  | CCOP(=O)(Cc1ccc(Nc2ncc(C(F)(F)F)c(Nc3ccc([C@H]4CC[C@](C)(O)CC4)c4c3C(=O)N(C)C4)n2)cc1)OCC [Example 183, Diethyl (4-{[4-{[7-(trans-4-hydroxy-4-methylcyclohexyl)-2-methyl-3-oxo-2,3-dihydro-1H-isoindol-4-yl]amino}-5-(trifluoromethyl)pyrimidin-2-yl]amino}benzyl)phosphonate] | < 1000 | < 1000
 |  | > 10000 | CN(c1ncccc1CNc1nc(Nc2ccc(CP(=O)(OCCc3ccsc3)OCCc3ccsc3)cc2)ncc1C(F)(F)F)S(C)(=O)=O [Example 33, bis[2-(thiophen-3-yl)ethyl] [4-({4-[({2-[methyl(methylsulfonyl)amino]pyridin-3-yl}methyl)amino]-5-(trifluoromethyl)pyrimidin-2-yl}amino)benzyl]phosphonate] |  | < 1000
 |  |  | CCOP(C)(=O)Cc1ccc(Nc2ncc(C(F)(F)F)c(Nc3ccc([C@H]4CC[C@H](O)CC4)c4c3C(=O)N(C)C4)n2)c(OC)c1 (stereo partly drawn) [Example 191, Ethyl (4-{[4-{[7-(trans-4-hydroxycyclohexyl)-2-methyl-3-oxo-2,3-dihydro-1H-isoindol-4-yl]amino}-5-(trifluoromethyl)pyrimidin-2-yl]amino}-3-methoxybenzyl) methylphosphinate] | < 1000 | < 1000
 |  |  | CCOP(=O)(Cc1ccc(Nc2ncc(C(F)(F)F)c(Nc3ccc([C@H]4CC[C@](C)(O)CC4)c4c3C(=O)N(C)C4)n2)c(OC)c1)OCC [Example 196, Diethyl (4-{[4-{[7-(trans-4-hydroxy-4-methylcyclohexyl)-2-methyl-3-oxo-2,3-dihydro-1H-isoindol-4-yl]amino}-5-(trifluoromethyl)pyrimidin-2-yl]amino}-3-methoxybenzyl)phosphonate] | < 1000 | < 1000
 |  |  | CCOP(=O)(Cc1ccc(Nc2ncc(C(F)(F)F)c(Nc3ccc(F)cc3C(=O)NC)n2)c(OC)c1)OCC [Example 102, Diethyl (4-{[4-{[4-fluoro-2-(methylcarbamoyl)phenyl]amino}-5-(trifluoromethyl)pyrimidin-2-yl]amino}-3-methoxybenzyl)phosphonate] | < 1000 | < 1000

Compound | IC50 (FAK [1]; [4]) [nM] | IC50 (FAK [1]; [5]) [nM] | IC50 (FAK [1]; [6]) [nM] | IC50 (FAK [1]; [3]) [nM] | IC50 (FAK [2]) [nM]
CCOP(=O)(OCC)c1cccc(Nc2ncc(C(F)(F)F)c(NCc3cccnc3N(C)S(C)(=O)=O)n2)c1 [Example 39, diethyl [3-({4-[({2-[methyl(methylsulfonyl)amino]pyridin-3-yl}methyl)amino]-5-(trifluoromethyl)pyrimidin-2-yl}amino)phenyl]phosphonate] |  |  | 1000 to 10000 |  | < 1000
CCOP(C)(=O)Cc1ccc(Nc2ncc(C(F)(F)F)c(Nc3ccccc3C(=O)NC)n2)cc1 (centres unmarked) [Example 22, Ethyl methyl(4-{[4-{[2-(methylcarbamoyl)phenyl]amino}-5-(trifluoromethyl)pyrimidin-2-yl]amino}benzyl)phosphinate] | < 1000 | < 1000 |  |  | < 1000
